Read-outs that look alike come from different tables or passages of the source.
Experiments:
MDR1 (P-gp) = assay: Blood-brain-barrier (BBB) penetration potential via MDCK-MDR1 permeability assay; details: dog; for efflux ratio at 120 min, 5 μM: MDCK-MDR1, pH 7.4, MDCK-MDR1: Efflux; for Papp A→B at 120 min, 5 μM: MDCK-MDR1, pH 7.4, MDCK-MDR1: Papp A-B; for Papp B→A at 120 min, 5 μM: MDCK-MDR1, pH 7.4, MDCK-MDR1: Papp B-A
[1] = tested on: MDR1-MDCK cell monolayers; assay: as above
[2] = tested on: mHTT protein in GM04724 (CAG 70/20) Huntington's disease patient lymphoblast cells; assay: mHTT protein assay, 2B7-MW1 assay via Mesoscale Discovery (MSD); assay type: cell-based, human
Experimental: Example A10: mHTT Protein Assay
Compounds are tested on GM04724 (CAG 70/20) Huntington's disease patient lymphoblast cells at doses ranging from 10 μM to 0.6 nM. 4,500 cells/well are seeded in 384 well plates. One plate replica is carried out for parallel viability testing by CellTiter Glo (CTG). Compounds are incubated for 48 hours. mHTT protein levels are assessed by the 2B7-MW1 assay via Mesoscale Discovery (MSD) as previously reported (Macdonald et al., 2014). The antibody pair is comprised of previously characterized monoclonals (2B7 and MW1) interrogating two regions for HTT conformation and biological properties: the N, 17 domain and the polyQ domain (Baldo et al., 2012; Ko et., 2001). 2B7-MW1 is […] specific levels of HTT at the time of treatment. 2B7-MW1 is dependent on polyQ expansion (e.g., the higher the expansion the higher the signal) and on mHTT size (e.g., a similar polyQ will give higher signal with smaller HTT size). The viability readout is carried out by CTG according to the manufacturer's instructions.

[3] = tested on: SMN protein in spinal muscular atrophy (SMA) patient fibroblasts (GM03813, Coriell); assay: SMN protein assay, Mesoscale Discovery (MSD); assay type: cell-based, human; details: for EC50: read-out: SMN2 protein EC50
Experimental: Example A12: SMN Protein Assay
Compounds are tested on spinal muscular atrophy (SMA) patient fibroblasts (GM03813, Coriell) at doses ranging from 2.5 μM to 0.6 nM. 7000 cells/well are seeded in 96-well plates. Compounds are incubated for 48 hours and the cells were lysed with 100 μL of lysis buffer. 20 μL of lysate is used for SMN protein measurement by Mesoscale Discovery (MSD) assay developed by PharmOptima (Michigan). A standard curve prepared with SMN protein ranging from 1 μg/ml to 19.5 pg/ml is used in each MSD plate to calculate the absolute SMN protein amount in each sample.

MDR1 = assay: Blood-brain-barrier (BBB) penetration potential via MDCK-MDR1 permeability assay; details: dog, MDCK-MDR1, pH 7.4, MDCK-MDR1: Efflux, efflux ratio
[4] = GM04724 Huntington's disease patient lymphoblasts
[5] = SMA patient fibroblasts GM03813, 48 hours, MSD
[6] = GM04724 (CAG 70/20) Huntington's disease patient lymphoblasts

SMILES	efflux ratio at 120 min, 5 μM (MDR1 (P-gp); efflux ratio)	Papp A→B at 120 min, 5 μM (MDR1 (P-gp); A-B direction) [×10⁻⁶ cm/s]	Papp B→A at 120 min, 5 μM (MDR1 (P-gp); B-A direction) [×10⁻⁶ cm/s]	MDCK-MDR1: % Recov A-B ([1]; A-B direction) [%]	MDCK-MDR1: % Recov B-A ([1]; B-A direction) [%]	EC50 [2, 4] [nM]	EC50 [3, 5] [nM]	efflux ratio at 120 min, 5 μM (MDR1)	mHTT protein EC50 [2, 4]	SMN2 protein EC50 [3, 5]	EC50 [2, 6] [nM]	efflux ratio at 120 min, 5 μM (MDR1 (P-gp))	Papp A→B at 120 min, 5 μM (MDR1 (P-gp); A-B) [×10⁻⁶ cm/s]	Papp B→A at 120 min, 5 μM (MDR1 (P-gp); B-A) [×10⁻⁶ cm/s]	MDCK-MDR1: % Recov A-B ([1]; A-B) [%]	MDCK-MDR1: % Recov B-A ([1]; B-A) [%]	EC50 ([3]; SMA patient fibroblasts (GM03813), 48 hours) [nM]
CN(c1ccc(-c2ccc(-c3cnn(C)c3)cc2O)nn1)[C@H]1C[C@H]2CC(F)(F)[C@H](C1)N2 (single isomer, unassigned) [Compound 3B]	1	16.3	22.7	80	71	51 to 100	101 to 500										
CC#Cc1ccc(-c2ccc(N(C)C3CC4CCC(N4)C3F)nn2)c(O)c1 (single isomer, unassigned) [Compound 30B]	1	10.6	11	38	69	51 to 100	101 to 500										
CN(c1ccc(-c2cc3c(=O)n(C)ccc3s2)nn1)[C@@H]1C[C@H]2CC[C@H](N2)[C@@H]1F (single isomer, unassigned) [Compound 68A]		0.41	45.6	92	78	101 to 500	51 to 100	111									
CN(c1ccc(-c2ccc(-c3cnn(C)c3)cc2O)nn1)[C@@H]1C[C@H]2CCC[C@H](N2)[C@@H]1F [Compound 15A, 2-(6-(((1S,2S,3R,5R)-2-fluoro-9-azabicyclo[3.3.1]nonan-3-yl)(methyl)amino)pyridazin-3-yl)-5-(1-methyl-1H-pyrazol-4-yl)phenol]		2.76	34.4	61	70	0.01 to 15	0.01 to 15	12									
COc1cn(-c2ccc(-c3ccc(N(C)[C@H]4C[C@@H]5CC(F)(F)[C@H](C4)N5)nn3)c(O)c2)cn1 [Compound 19B, 2-(6-(((1R,3S,5S)-6,6-difluoro-8-azabicyclo[3.2.1]octan-3-yl)(methyl)amino)pyridazin-3-yl)-5-(4-methoxy-1H-imidazol-1-yl)phenol]		12.2	63.3	91	88		51 to 100	5	E (501 ≤ E ≤ 10.000)								
CN(c1ccc(-c2ccc(-c3cnn(C(F)F)c3)cc2O)nn1)[C@H]1C[C@@H]2CCC[C@@H](N2)[C@H]1F [Compound 21B]		1.73	30.4	39	68	16 to 50	0.01 to 15	18									
CN(c1ccc(-c2cc(F)c(-c3ccn(C)c(=O)c3)cc2O)nn1)[C@H]1C[C@@H]2CC(F)(F)[C@H](C1)N2 [Compound 22B, 4-(4-(6-(((1R,3S,5S)-6,6-difluoro-8-azabicyclo[3.2.1]octan-3-yl)(methyl)amino)pyridazin-3-yl)-2-fluoro-5-hydroxyphenyl)-1-methylpyridin-2(1H)-one]		2.83	87.7	88	95		51 to 100	31									
Cc1cnc(-c2ccc(-c3ccc(N(C)[C@@H]4C[C@H]5CCC[C@H](N5)[C@@H]4F)nn3)c(O)c2)cn1 [Compound 26A, 2-(6-(((1S,2S,3R,5R)-2-fluoro-9-azabicyclo[3.3.1]nonan-3-yl)(methyl)amino)pyridazin-3-yl)-5-(5-methylpyrazin-2-yl)phenol]		2.09	43.6	65	77	101 to 500	51 to 100	21									
CN(c1ccc(-c2ccc(-c3cnc(C#N)cn3)cc2O)nn1)[C@@H]1C[C@H]2CCC[C@H](N2)[C@@H]1F [Compound 28A, 5-(4-(6-(((1S,2S,3R,5R)-2-fluoro-9-azabicyclo[3.3.1]nonan-3-yl)(methyl)amino)pyridazin-3-yl)-3-hydroxyphenyl) pyrazine-2-carbonitrile]		1.41	28.4	40	61	16 to 50		20		E (501 ≤ E ≤ 10.000)							
CN(c1ccc(-c2ccc(C3=CCCC3)cc2O)nn1)[C@@H]1C[C@H]2CC[C@H](N2)[C@@H]1F [Compound 34A, 5-(cyclopent-1-en-1-yl)-2-(6-(((1S,2S,3R,5R)-2-fluoro-8-azabicyclo[3.2.1]octan-3-yl)(methyl)amino)pyridazin-3-yl)phenol]		0.63	1.05	8	55	101 to 500	16 to 50	2									
CC(=O)N(C)c1ccc(-c2ccc(N(C)[C@H]3C[C@@H]4CC[C@@H](N4)[C@H]3F)nn2)c(O)c1 [Compound 35B, N-(4-(6-(((1R,2R,3S,5S)-2-fluoro-8-azabicyclo[3.2.1]octan-3-yl)(methyl)amino)pyridazin-3-yl)-3-hydroxyphenyl)-N-methylacetamide]		0.23	42	103	99		0.01 to 15	181	E (501 ≤ E ≤ 10.000)								
CN(c1ccc(-c2ccc(-n3cnc(Cl)c3)cc2O)nn1)[C@H]1C[C@@H]2CC(F)(F)[C@H](C1)N2 [Compound 37B, 5-(4-chloro-1H-imidazol-1-yl)-2-(6-(((1R,3S,5S)-6,6-difluoro-8-azabicyclo[3.2.1]octan-3-yl)(methyl)amino)pyridazin-3-yl)phenol]		19	32.7	54	70	51 to 100	101 to 500	2									
CN(c1ccc(-c2ccc(C#N)cc2O)nn1)[C@H]1C[C@@H]2CCC[C@@H](N2)[C@H]1F [Compound 39B, 4-(6-(((1R,2R,3S,5S)-2-fluoro-9-azabicyclo[3.3.1]nonan-3-yl)(methyl)amino)pyridazin-3-yl)-3-hydroxybenzonitrile]		4.57	40.6	96	86	101 to 500	16 to 50	9									
Cc1nc2cc(-c3ccc(N(C)[C@@H]4C[C@H]5CC[C@H](N5)[C@@H]4F)nn3)c(O)cc2o1 [Compound 118A, 5-(6-(((1S,2S,3R,5R)-2-fluoro-8-azabicyclo[3.2.1]octan-3-yl)(methyl)amino)pyridazin-3-yl)-2-methylbenzo[d]oxazol-6-ol]											16 to 50						
Cc1nc2cc(-c3ccc(N(C)[C@H]4C[C@@H]5CC[C@@H](N5)[C@H]4F)nn3)c(O)cc2o1 [Compound 118B, 5-(6-(((1R,2R,3S,5S)-2-fluoro-8-azabicyclo[3.2.1]octan-3-yl)(methyl)amino)pyridazin-3-yl)-2-methylbenzo[d]oxazol-6-ol]											0.01 to 15						
CN(c1ccc(-c2cc3ccncc3cc2O)nn1)[C@@H]1C[C@H]2CC(F)(F)[C@@H](C1)N2 [Compound 125A, 6-(6-(((1S,3R,5R)-6,6-difluoro-8-azabicyclo[3.2.1]octan-3-yl)(methyl)amino)pyridazin-3-yl)isoquinolin-7-ol]											101 to 500	3	14.1	43.3	63	87	51 to 100

Reference: US12509460B2 (Skyhawk Therapeutics, Inc., priority 2019, dated 2025)
